Assay results: patent US12018011B2, “Macrocyclic compounds and compositions, and methods of preparing and using the same” (Kura Oncology, Inc., priority 2021, dated 2024)

Legend:
[1] = target: T1, Recombinant human farnesyl transferase (FTase) (Homo sapiens, UniProt P49356); assay: FTase fluorescence assay (farnesylation of dansyl-GCVLS peptide); format: biochemical; conditions: recombinant human FTase 2.5 nM, Dansyl-GCVLS 85 nM, FPP 30 nM, 30° C., 50 minutes
T1 construct: purchased Crelux (Martinsried, Germany)

[2] = test system: T24/83 cells; assay: T24/83 cell proliferation assay (CellTiter-Glo); format: cell-based; conditions: Homo sapiens, 96 h, 4 days
Source text: T24/83 cell line was purchased from the European Collection of Authenticated Cell Cultures (Salisbury, UK). Recombinant human farnesyl transferase (FTase) and geranylgeranyl transferase type-1 (GGTase) were obtained from Crelux (Martinsried, Germany). Dansyl labelled GCVLS peptide was purchased from Bachem (Torrance, CA), and Dansyl labelled GCVLL peptide was purchased from Bio Synthesis (Lewisville, TX). Farnesyl Pyrophosphate (FPP) and Geranylgeranyl pyrophosphate (GGPP) were purchased from Cayman (Ann Arbor, MI).
Mutant oncogenic HRAS was originally identified in a human bladder carcinoma cell line called T24. T24/83 is a subline of T24 established more recently that has more favorable growth characteristics for in vitro assays. Thus, T24/83 is a well-characterized mutant HRAS-dependent cell line that is an ideal model for quantifying the HRAS-dependent antitumor activity of farnesyltransferase inhibitors.
T24/83 cells were inoculated into 384 well plates at 100 cells/well, and grown in the presence of inhibitor, 0.7% DMSO as a negative control, or 100 μM tipifarnib as a positive control, at 37° C. for 4 days. Cell viability was assessed using the CellTiter-Glo Kit (CTG) (Promega; Madison, WI). Luminescence was recorded using EnVision microplate reader (PerkinElmer; Waltham, MA). In this assay, tipifarmib was used as a positive control. All the assay plates passed the QC criteria (S/B, Z-factor).

[3] = Metabolic stability in human liver microsomes; format: in vitro ADME; conditions: human liver microsomes 0.5 mg protein/mL, test compound 1 μM, 37° C.; read-out: T1/2 in HLM
Protocol: (§1) The metabolic stability of the compounds disclosed herein was determined by measuring half-life (T1/2) of the compounds in the presence of mouse liver microsomes (MLM) or human liver microsomes (BILM).
(§2) Intermediate solution: 5 μL of compound and control stock solution (10 mM in dimethyl sulfoxide (DMSO)) were diluted with 495 μL of acetonitrile (ACN) (intermediate solution concentration: 100 μM, 99% ACN).
(§3) Working solution: 50 μL of compound and control intermediate solution (100 μM) were diluted with 450 μL of 100 mM potassium phosphate buffer (working solution concentration: 10 μM, 9.9% ACN).
(§4) Controls used in this assay: Testosterone, Diclofenac, and Propafenone.
(§5) Preparation Procedure: The appropriate amount of NADPH powder was weighed and diluted into a 10 mM MgCl2 solution (working solution concentration: 10 unit/mL; final concentration in reaction system: 1 unit/mL).
(§6) The appropriate concentrations of microsome working solutions were prepared in 100 mM potassium phosphate buffer.
(§7) Cold (4° C.) acetonitrile (CAN) containing 200 ng/mL tolbutamide and 200 ng/mL labetalol as internal standards (IS) was used as the stop solution.
(§8) Using an Apricot automation workstation, 10 μL/well of compound working solution were added to all 96-well reaction plates except the blank (T0, T5, T10, T20, T30, T60, and NCF60).
(§9) An Apricot automation workstation was used to add 80 μL/well of microsome solution to all reaction plates (Blank, T0, T5, T10, T20, T30, T60, and NCF60).
(§10) All reaction plates containing mixtures of compound and microsomes were pre-incubated at 37° C. for 10 minutes.
(§11) An Apricot automation workstation was used to add 10 μL/well of 100 mM potassium phosphate buffer to reaction plate NCF60.
(§12) Reaction plate NCF60 was incubated at 37° C. for 60 minutes.
(§13) After pre-incubation, an Apricot automation workstation was used to add 10 μL/well of NADPH regenerating system to every reaction plate except NCF60 (Blank, T0, T5, T10, T20, T30, and T60) to start the reaction. Final concentration of each component in incubation medium: Microsome (0.5 mg protein/mL); Test Compound (1 μM); Control Compound (1 μM); Acetonitrile (0.99%); DMSO (0.01%).
(§14) The reaction plates were incubated at 37° C. for 0 minute (T0, stop solution was added prior to microsome and NADPH solutions), 5 minutes (T5), 10 minutes (T10), 20 minutes (T20), 30 minutes (T30), 60 minutes (T60).
(§15) An Apricot automation workstation was used to add 300 μL/well of stop solution to each reaction plate at its appropriate end time point to terminate the reaction.
(§16) Each plate was sealed and shaken for 10 minutes.
(§17) After shaking, each plate was centrifuged at 4000 rpm and 4° C. for 20 minutes.
(§18) During centrifugation, an Apricot automation workstation was used to add 300 µL/well of HPLC grade water to eight new 96-well plates.
(§19) After centrifugation, an Apricot automation workstation was used to transfer 100 μL of supernatant from each reaction plate to its corresponding bioanaylsis plate.
(§20) Each bioanalysis plate was sealed and shaken for 10 minutes prior to LC-MS/MS analysis.
(§21) The equation of first order kinetics was used to calculate T1/2 and CLint(mic) (μL/min/mg).

[4] = Metabolic stability in mouse liver microsomes; format: in vitro ADME; conditions: CD-1 mouse liver microsomes 0.5 mg protein/mL, test compound 1 μM, 37° C.; read-out: T1/2 in MLM
Protocol: as §1, §2, §3, §4, §5, §6, §7, §8, §9, §10, §11, §12, §13, §14, §15, §16, §17, §18, §19, §20, §21

Structure (SMILES): Cn1cncc1[C@@]1(O)c2ccc(Cl)c(c2)OCCc2cccc(c2)-c2cc(=O)[nH]c3ccc1cc23 [(S)-25, (S)-4^4-chloro-3-hydroxy-3-(1-methyl-1H-imidazol-5-yl)-2^1,2^2-dihydro-5-oxa-2(4,6)-quinolina-1,4(1,3)-dibenzenacycloheptaphan-2^2-one]
- IC50 [1]: ≤ 10 nM
- IC50 [2]: 50 to 500 nM
- half-life at 1 μM [3]: < 30 min
- half-life at 1 μM [4]: < 5 min

Structure (SMILES): [2H]C([2H])([2H])n1c(=O)cc2c3cc(ccc31)[C@@](O)(c1cncn1C)c1ccc(Cl)c(c1)OCCc1cccc-2c1 [(S)-28, (S)-4^4-chloro-3-hydroxy-2^1-(methyl-d3)-3-(1-methyl-1H-imidazol-5-yl)-2^1,2^2-dihydro-5-oxa-2(4,6)-quinolina-1,4(1,3)-dibenzenacycloheptaphan-2^2-one]
- IC50 [1]: ≤ 10 nM
- IC50 [2]: ≤ 50 nM
- half-life at 1 μM [3]: < 30 min
- half-life at 1 μM [4]: < 5 min

Structure (SMILES): Cn1cncc1C1(O)c2cccc(c2)CCc2cccc(c2)-c2cc(=O)n(C)c3ccc1cc23 (stereo not shown) [Compound 2, 3-hydroxy-2^1-methyl-3-(1-methyl-1H-imidazol-5-yl)-2^1,2^2-dihydro-2(4,6)-quinolina-1,4(1,3)-dibenzenacyclohexaphan-2^2-one]
- IC50 [1]: 10 to 100 nM
- IC50 [2]: 50 to 500 nM

Structure (SMILES): Cn1cncc1C1(O)c2cccc(c2)OCc2cccc(c2)-c2cc(=O)n(C)c3ccc1cc23 (stereo not shown) [Compound 11, 3-hydroxy-2^1-methyl-3-(1-methyl-1H-imidazol-5-yl)-2^1,2^2-dihydro-5-oxa-2(4,6)-quinolina-1,4(1,3)-dibenzenacyclohexaphan-2^2-one]
- IC50 [1]: ≤ 10 nM
- IC50 [2]: > 500 nM

Structure (SMILES): Cn1cncc1C1(O)c2ccc(Cl)c(c2)OCc2cccc(c2)-c2cc(=O)[nH]c3ccc1cc23 (stereo not shown) [Compound 13, 4^4-chloro-3-hydroxy-3-(1-methyl-1H-imidazol-5-yl)-2^1,2^2-dihydro-5-oxa-2(4,6)-quinolina-1,4(1,3)-dibenzenacyclohexaphan-2^2-one]
- IC50 [1]: 10 to 100 nM
- IC50 [2]: 50 to 500 nM

Structure (SMILES): Cn1cncc1C1(O)c2cccc(c2)OCCc2cccc(c2)-c2cc(=O)[nH]c3ccc1cc23 (stereo not shown) [Compound 22, 3-hydroxy-3-(1-methyl-1H-imidazol-5-yl)-2^1,2^2-dihydro-5-oxa-2(4,6)-quinolina-1,4(1,3)-dibenzenacycloheptaphan-2^2-one]
- IC50 [1]: 10 to 100 nM
- IC50 [2]: 50 to 500 nM

Structure (SMILES): Cn1cncc1C1(O)c2cccc(c2)OCCc2cccc(c2)-c2cc(=O)n(C)c3ccc1cc23 (stereo not shown) [Compound 23, 3-hydroxy-2^1-methyl-3-(1-methyl-1H-imidazol-5-yl)-2^1,2^2-dihydro-5-oxa-2(4,6)-quinolina-1,4(1,3)-dibenzenacycloheptaphan-2^2-one]
- IC50 [1]: ≤ 10 nM
- IC50 [2]: ≤ 50 nM

Structure (SMILES): COc1cc2c3cc(ccc3n1)C(O)(c1cncn1C)c1ccc(Cl)c(c1)OCCc1cccc-2c1 (stereo not shown) [Compound 24, 4^4-chloro-2^2-methoxy-3-(1-methyl-1H-imidazol-5-yl)-5-oxa-2(4,6)-quinolina-1,4(1,3)-dibenzenacycloheptaphan-3-ol]
- IC50 [1]: > 100 nM
- IC50 [2]: > 500 nM

Structure (SMILES): Cn1cncc1C1(O)c2ccc(Cl)c(c2)OCCc2cccc(c2)-c2cc(=O)n(C)c3ccc1cc23 (stereo not shown) [Compound 26, 4^4-chloro-3-hydroxy-2^1-methyl-3-(1-methyl-1H-imidazol-5-yl)-2^1,2^2-dihydro-5-oxa-2(4,6)-quinolina-1,4(1,3)-dibenzenacycloheptaphan-2^2-one]
- IC50 [1]: 10 to 100 nM
- IC50 [2]: 50 to 500 nM

Structure (SMILES): COc1cc2c3cc(ccc3n1)C(O)(c1cncn1C)c1cccc(c1)COc1cccc-2c1 (stereo not shown) [Compound 40, 2^2-methoxy-3-(1-methyl-1H-imidazol-5-yl)-6-oxa-2(4,6)-quinolina-1,4(1,3)-dibenzenacyclohexaphan-3-ol]
- IC50 [1]: > 100 nM
- IC50 [2]: 50 to 500 nM

Structure (SMILES): Cn1cncc1C1(O)c2cccc(c2)COc2cccc(c2)-c2cc(=O)[nH]c3ccc1cc23 (stereo not shown) [Compound 41, 3-hydroxy-3-(1-methyl-1H-imidazol-5-yl)-2^1,2^2-dihydro-6-oxa-2(4,6)-quinolina-1,4(1,3)-dibenzenacyclohexaphan-2^2-one]
- IC50 [1]: 10 to 100 nM
- IC50 [2]: 50 to 500 nM

Structure (SMILES): Cn1cncc1C1(O)c2cccc(c2)COc2cccc(c2)-c2cc(=O)n(C)c3ccc1cc23 (stereo not shown) [Compound 42, 3-hydroxy-2^1-methyl-3-(1-methyl-1H-imidazol-5-yl)-2^1,2^2-dihydro-6-oxa-2(4,6)-quinolina-1,4(1,3)-dibenzenacyclohexaphan-2^2-one]
- IC50 [1]: ≤ 10 nM
- IC50 [2]: ≤ 50 nM

Structure (SMILES): Cn1cncc1C1(O)c2ccc(Cl)c(c2)COc2cccc(c2)-c2cc(=O)[nH]c3ccc1cc23 (stereo not shown) [Compound 44, 4^4-chloro-3-hydroxy-3-(1-methyl-1H-imidazol-5-yl)-2^1,2^2-dihydro-6-oxa-2(4,6)-quinolina-1,4(1,3)-dibenzenacyclohexaphan-2^2-one]
- IC50 [1]: ≤ 10 nM
- IC50 [2]: 50 to 500 nM

Structure (SMILES): COc1cc2c3cc(ccc3n1)C(O)(c1cncn1C)c1cnc(C#N)c(c1)COc1cccc-2c1 (stereo not shown) [Compound 60, 3-hydroxy-2^2-methoxy-3-(1-methyl-1H-imidazol-5-yl)-6-oxa-2(4,6)-quinolina-4(3,5)-pyridina-1(1,3)-benzenacyclohexaphane-4^6-carbonitrile]
- IC50 [1]: 10 to 100 nM
- IC50 [2]: > 500 nM

Structure (SMILES): [2H]C([2H])([2H])n1c(=O)cc2c3cc(ccc31)C(O)(c1cncn1C)c1cnc(C#N)c(c1)COc1cccc-2c1 (stereo not shown) [Compound 61, 3-hydroxy-2^1-(methyl-d3)-3-(1-methyl-1H-imidazol-5-yl)-2^2-oxo-2^1,2^2-dihydro-6-oxa-2(4,6)-quinolina-4(3,5)-pyridina-1(1,3)-benzenacyclohexaphane-4^6-carbonitrile]
- IC50 [1]: ≤ 10 nM
- IC50 [2]: 50 to 500 nM

Structure (SMILES): [2H]C([2H])([2H])n1c(=O)cc2c3cc(ccc31)C(N)(c1cncn1C)c1cnc(C#N)c(c1)COc1cccc-2c1 (stereo not shown) [Compound 62, 3-amino-2^1-(methyl-d3)-3-(1-methyl-1H-imidazol-5-yl)-2^2-oxo-2^1,2^2-dihydro-6-oxa-2(4,6)-quinolina-4(3,5)-pyridina-1(1,3)-benzenacyclohexaphane-4^6-carbonitrile]
- IC50 [1]: ≤ 10 nM
- IC50 [2]: > 500 nM

Structure (SMILES): Cn1cncc1C1(O)c2ccc(C#N)c(c2)COc2cccc(c2)-c2cc(C#N)nc3ccc1cc23 (stereo not shown) [Compound 72, 3-hydroxy-3-(1-methyl-1H-imidazol-5-yl)-6-oxa-2(4,6)-quinolina-1,4(1,3)-dibenzenacyclohexaphane-2^2 4^4-dicarbonitrile]
- IC50 [1]: ≤ 10 nM
- IC50 [2]: 50 to 500 nM

Structure (SMILES): Cn1cncc1C1(O)c2ccc(C#N)c(c2)COc2cccc(c2)-c2cc(C(N)=O)nc3ccc1cc23 (stereo not shown) [Compound 73, 4^4-cyano-3-hydroxy-3-(1-methyl-1H-imidazol-5-yl)-6-oxa-2(4,6)-quinolina-1,4(1,3)-dibenzenacyclohexaphane-2^2-carboxamide]
- IC50 [1]: 10 to 100 nM
- IC50 [2]: 50 to 500 nM
